Experimental data: patent US6713056B1, “Combined preparation for the treatment of neoplasic diseases or of infectious diseases” (I.D.M. Immuno-Designed Molecules, priority 1998, dated 2004)

Key:
[1] = system: solid carcinoma; assay: Mice bearing solid carcinoma: apoptosis-inducing drug plus monocyte derived cells; format: in vivo, C57B16 mice; details: drug intraperitoneally, 24 h later 0.1 million monocyte derived cells in tumor periphery; seen only after combined treatment
Description: 7) C57B16 mice bearing solid carcinoma are injected intraperitonealy with a drug inducing apoptosis (1 mg mitomycin C or 0.1 mg sodium butyrate). After 24 h, mice are injected with 0.1 million monocyte derived cells in tumor periphery. […] In another protocol, carcinoma cells are treated in vitro with 0.01 mM sodium butyrate, and then submitted to phagocytosis by murine monocyte derived cells.

[2] = system: human carcinoma solid tumors; assay: Nude mice with human carcinoma solid tumors: cytotoxic drugs, then activated human macrophages, then the same drugs; format: in vivo; details: after macrophage injection; drugs used alone or in combination
Text: 2) Nude mice inoculated with human carcinoma solid tumors are initially treated with cytotoxic drugs (Adriamycin, Etretinate, Taxotere), used alone or in combination.

[3] = system: 16R-OV1/DDP human ovary cancer cell line; assay: Survival of cisplatin-resistant ovary cancer cells grown with MAK for 24 hours, then with cisplatin (FIG. 3); format: cell-based; details: cisplatin alone at maximal dose 10^-3 M
Description: The percentage of tumor cell survival is measured according to the method described in “Feasibility of drug screening with panels of human tumor cell lines using a microculture tetrazolium assay” (Alley M. C., Scudiero D. A., Monks A., et al.; Cancer Res., 1988, 48: 489-501), and is plotted against the dose of cisplatin (abscissa) in the test tube (molar concentration).
FIG. 3 represents the percentage of cellular survival as a function of cisplatin concentration (M).
The curve with hollow circles corresponds to the use of cisplatin alone.
The plain curve corresponds to the use of MAK alone.
The curve with black squares corresponds to the use of the combination of MAK followed by cisplatin.
The curve with hollow triangles corresponds to the theoretical additive curve of a treatment with MAK alone and a treatment with cisplatin alone.
16R-OV1/DDP human ovary cancer cell line was rendered resistant to cisplatinum by continuous exposure to increasing concentrations of cisplatin (Fajac A., et al. Cisplatin induced apoptosis and p.53 gene status in a cisplatin resistant human ovarian carcinoma cell line. Int. J. Cancer 68, 67-74, 1996). The cells are grown at 37° C., 5% CO2 in RPMI 1640 medium in the presence of activated human macrophages (MAK) during 24 hours and then with cisplatin at increasing concentrations. […]

Structure (SMILES)	tumor outcome after combined treatment [1]	effect of second treatment with the same cytotoxic drugs (subcutaneous tumor size) [2]	also measured
CCCC(=O)[O-].[Na+] [sodium butyrate]	Tumor regression and protection against further tumor challenge		
CC(=O)O[C@@]12CO[C@@H]1C[C@H](O)[C@@]1(C)C(=O)[C@H](O)C3=C(C)[C@@H](OC(=O)[C@H](O)[C@@H](NC(=O)OC(C)(C)C)c4ccccc4)C[C@@](O)([C@@H](OC(=O)c4ccccc4)[C@H]21)C3(C)C [Taxotere]		further antitumoral effect	
CCOC(=O)/C=C(C)/C=C/C=C(C)/C=C/c1c(C)cc(OC)c(C)c1C [Etretinate]		further antitumoral effect	
N.N.[Cl][Pt][Cl] [Cisplatin, cisplatin]			inhibition of survival [3]: 35%
COc1cccc2c1C(=O)c1c(O)c3c(c(O)c1C2=O)C[C@@](O)(C(=O)CO)C[C@@H]3O[C@H]1C[C@H](N)[C@H](O)[C@H](C)O1 [Adriamycin]		further antitumoral effect	
CO[C@@]12[C@H](COC(N)=O)C3=C(C(=O)C(C)=C(N)C3=O)N1C[C@@H]1N[C@@H]12 [mitomycin C]	Tumor regression and protection against further tumor challenge		
